According to US10138468B2, “Method for differentiation of pluripotent stem cells into multi-competent renal precursors” (Hoffmann-La Roche Inc., priority 2013, dated 2018):
“Also recorded” adds a separate entry of the source.

Legend:
[1] = tested on: hPSCs-derived Podocytes cells; experiment: Pro-inflammatory cytokine response assay (Bio-Plex Pro Cytokine, Chemokine and Growth factor assay); type: cell-based, human; details: TNFα 1 ng/ml and 5 ng/ml, 24 h, DMEMF12 medium
Description: FIG. 8a: Pro-inflammatory cytokine response assay. hPSCs-derived Podocytes cells at Day 13 upregulate the expression of pro-inflammatory markers such as IL-8 upon stimulation with TNFα (1 ng/ml and 5 ng/ml) after 24 h in DMEMF12 medium Main panel: Quantification graph: concentration in the harvested supernatant (pg/ml) of the mentioned cytokines. Bio-Plex Pro Cytokine, Chemokine and Growth factor assay was used to measure the activation of hPSCs-derived Podocytes cells in response to TNFα.
In response to proinflammatory stimuli Podocytes express specific cytokines including IL-8, Rantes, MIP-1b and MCP1. Bio-Plex Pro™ Cytokine, Chemokine and Growth factor assay (Biorad, M50-0KCAF0Y). After overnight serum starvation hiPS derived podocytes were exposed at two different concentrations of TNFα (1 and 5 ng/ml) for 24 hours. After treatment the supernatants were collected and used to quantify the Cytokine, Chemokine and Growth factor release using Bio-Plex Pro™ Cytokine, Chemokine and Growth factor assay kit (Biorad, M50-0KCAF0Y). The assay was performed following the manufacturer's instruction. To determine whether the differentiation system generates bona fide Podocytes, we challenged the iPS-derived Podocytes with proinflammatory TNFα and analyzed for cytokine and chemokine release.

[2] = tested on: hPSCs-derived Podocytes cells; experiment: Functional response to stressor stimulation: ZO-1 localization by immunocytochemistry and image based high content analysis; type: cell-based, human; details: podocytes at Day 13, already at Day 1, sustained at D2 and D5, DMEMF12 medium
Description: (§1) FIG. 6: Characterization of monolayer differentiated hPSCs-derived Podocytes cells at Day 13. hiPSCs have been differentiated in monolayer conditions and at Day 13 have been tested for functional response to TGF beta (10 ng/ml) stressor stimulation. The expression of the tight junction marker ZO-1 has been tested by immunocytochemistry analysis and its cellular localization by image based high content analysis (HCA).
as §1, with “7:” for “6:”, “Angiotensin II (AngII) (100 nM)” for “TGF beta (10 ng/ml)”
The cells were fixed with PBS containing 4% paraformaldehyde for 20 min at room temperature. After three washing with PBS the cells the cells were then blocked with 5% BSA solution (Blocking buffer) for 60 min. When probing for an intracellular antigen, 0.5% Triton-X was included in the blocking buffer. […] Fluorescence was acquired and analyzed by the Operetta® High Content Imaging System (PerkinElmer) followed by computer-based image analysis (ImageJ, Java-based image processing program). […]

TNFα
IL-8 concentration in the harvested supernatant [1]: increase of the supernatant concentration; also recorded: significantly upregulated | MCP1 concentration in the harvested supernatant [1]: increase of the supernatant concentration; also recorded: significantly upregulated | MIP1b concentration in the harvested supernatant [1]: increase of the supernatant concentration; also recorded: significantly upregulated | RANTES concentration in the harvested supernatant [1]: increase of the supernatant concentration; also recorded: significantly upregulated

Angiotensin II [AngII, stressor stimulation (100 nM) of podocytes]
ZO-1 cellular localization (perinuclear translocation of ZO-1 expression) ([2]; AngII 100 nM): remodeling and translocation of the ZO-1 expression form the membrane to the perinuclear zone

TGF beta: stressor stimulation (10 ng/ml) of podocytes
ZO-1 cellular localization (perinuclear translocation of ZO-1 expression) ([2]; TGF beta 10 ng/ml): remodeling and translocation of the ZO-1 expression form the membrane to the perinuclear zone
